Legend:
KRAS WT = KRAS WT (Homo sapiens, UniProt P01116); assay: KRAS WT biochemical assay (Table 1, no method of its own); type: binding; settings: read-out: KRAS WT Biochemical IC50
GP2D = assay: Inhibition of proliferation of KRAS G12D mutant tumor cell line GP2D (CellTiter-Glo); settings: Homo sapiens, GP2d, 72 h, read-out: GP2D IC50
KRAS G12D-SOS1 = molecular target: T1, KRAS G12D-SOS1 (Homo sapiens, UniProt P01116, G12D); assay: Blocking of KRAS G12D-SOS1 protein binding (Cisbio KRAS-G12D/SOS1 Binding Assay Kit, time-resolved fluorescence); settings: KRAS G12D-GTP and SOS1 protein, signal ratio 665nm/620nm; read-out: G12D SOS1 biochemical IC50
T1 construct: purchased Cisbio 63ADK000CB17PEG
From the text: • 1. Experimental objective: […] Experimental reagents and instruments The centrifuge (5810R) was purchased from Eppendorf; the pipette was purchased from Eppendorf or Rainin; and the microplate reader was purchased from BioTek (United States) with a model of SynergyH1 multifunctional microplate reader. KRAS-G12D/SOS1 Binding Assay Kit was purchased from Cisbio, with a catalog number of 63ADK000CB17PEG; GTP was purchased from Sigma, with a catalog number of G8877; 384-well plate was purchased from Perkin Elmer, with a catalog number of 6007299. The Diluent buffer in the kit was used to dilute the compound into 10× compound solution of different concentrations, and 2 uL was added to each well of the 384-well plate. Tag2-KRAS G12D protein and GTP were formulated into a mixed solution of 5×KRAS G12D-GTP protein using Diluent buffer, and Tag1-SOS1 protein was formulated into a 5×SOS1 protein solution using Diluent buffer. Each solution was added to the 384-well plate separately at 4 uL per well, and incubated at room temperature for 15 min. A mixed solution of 2× anti-Tag1-Tb^3+ and anti-Tag2-XL665 formulated using detection buffer was added to the 384-well plate at 10 µL per well, and incubated at 4°C in the dark for 3 h.

[1] = Pharmacokinetic determination in mice (IV and PO, plasma, LCMS/MS); type: in vivo, Balb/c mice; settings: male, Balb/c, mouse, in vivo; for AUC / C0 / clearance / half-life: iv, 1 mg/kg
How it was run: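 Male Balb/c mice, fasted overnight (n=3 per route): PO 30 mg/kg in 10% Captisol/50 mM citrate pH 5.0, or IV 1 mg/kg in 5% DMSO/10% Solutol HS15/85% PBS. Orbital blood sampled predose to 24 h; EDTA plasma analysed by LC-MS/MS.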

AsPC-1 = assay: Inhibition of proliferation of KRAS G12D mutant tumor cell line AsPC-1 (CellTiter-Glo); type: cell-based; settings: Homo sapiens, ASPC1, about 72 h
How it was run: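 KRAS G12D-mutant AsPC-1 cells plated overnight at 37 °C/5% CO2, then exposed to serial compound dilutions (DMSO/medium, vehicle control) for about 72 h. Viability read by CellTiter-Glo luminescence; inhibition rate vs concentration fitted by nonlinear regression for IC50.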

[2] = system: human colorectal cancer cell line (GP2D); assay: Anti-tumor efficacy in mouse transplanted tumor model of human colorectal cancer cell line (GP2D); type: in vivo, mice (BALB/c nude)
[3] = Pharmacokinetic determination in rats (IV and PO, plasma, LCMS/MS); type: in vivo, SD rats; settings: male, SD, rat, in vivo
How it was run: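 Male SD rats (3/group), fasted overnight, dosed PO at 30 mg/kg in 10% Captisol/50 mM citrate pH 5.0 or IV at 1 mg/kg in 5% DMSO/10% Solutol HS15/85% PBS. Jugular plasma (EDTA-2K) sampled predose to 24 h; analysed by LCMS/MS.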

KRAS WT, sequence (P01116 1-188 isoform P01116-2): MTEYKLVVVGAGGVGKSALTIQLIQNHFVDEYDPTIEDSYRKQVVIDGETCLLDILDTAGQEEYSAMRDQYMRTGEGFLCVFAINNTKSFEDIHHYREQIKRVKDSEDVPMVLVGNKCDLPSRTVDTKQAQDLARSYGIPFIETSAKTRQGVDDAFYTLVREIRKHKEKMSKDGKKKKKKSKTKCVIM
T1 sequence (P01116 1-188 isoform P01116-2 G12D): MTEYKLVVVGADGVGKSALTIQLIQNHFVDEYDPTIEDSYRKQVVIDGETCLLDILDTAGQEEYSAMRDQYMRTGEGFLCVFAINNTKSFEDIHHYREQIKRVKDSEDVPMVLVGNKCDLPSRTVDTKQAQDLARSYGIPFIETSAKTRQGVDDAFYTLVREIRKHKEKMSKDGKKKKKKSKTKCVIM

| Structure (SMILES) | IC50 (KRAS WT) [nM] | IC50 (GP2D) [nM] | IC50 (KRAS G12D-SOS1) [nM] | AUC [1] [ng·h/mL] | C0 [1] [ng/mL] | clearance [1] [mL/min/kg] | half-life [1] [h] | further results |
| --- | --- | --- | --- | --- | --- | --- | --- | --- |
| C#Cc1c(F)ccc2cc(O)cc(-c3nc4c5c(nc(OCC6(CN7CCC(=C(F)F)C7)CC6)nc5c3F)N3CC5CCC(N5)C3CO4)c12 (stereo not shown) [Example 14-1] | 153 | 1.5 | 4.3 | – | – | – | – | – |
| C#Cc1c(F)ccc2cc(O)cc(-c3nc4c5c(nc(OCC6(CN7CCC(=CF)C7)CC6)nc5c3F)N3CC5CCC(N5)C3CO4)c12 (stereo not shown) [Example 15-1] | 26 | 0.76 | 3 | – | – | – | – | – |
| C#Cc1c(F)ccc2cc(O)cc(-c3nc4c5c(nc(OCC6(CN7CC8CC(=C(F)F)CC8C7)CC6)nc5c3F)N3CC5CCC(N5)C3CO4)c12 (stereo not shown) [Example 17-1] | 58 | 1.2 | 2.6 | – | – | – | – | – |
| C#Cc1c(F)ccc2cc(O)cc(-c3nc4c5c(nc(OCC6(CN7CCC(=NOC)CC7)CC6)nc5c3F)N3CC5CCC(N5)C3CO4)c12 [Example 21-1, 1-((1-((((5aS,6S,9R)-2-(8-ethynyl-7-fluoro-3-hydroxylnaphthalen-1-yl)-1-fluoro-5a,6,7,8,9,10-hexahydro-5H-4-oxa-3,10a,11,13,14-pentaaza-6,9-methylnaphtho[1,8-ab]hept-12-yl)oxy)methyl)cyclopropyl)methyl)piperidine-4-one-oxo-methyloxime] | 60 | 0.75 | 1.9 | 253 | 939 | 14.1 | 9.1 | IC50 (AsPC-1): 3.1 nM |
| C#Cc1c(F)ccc2cc(O)cc(-c3ncc4c(N5CC6CCC(C5)N6)nc(OC[C@@]56CCCN5C[C@H](F)C6)nc4c3F)c12 [MRTX-1133, reference compound] | – | – | – | 305 | 854 | 55 | 11.1 | Cmax ([1]; po, 30 mg/kg): 11 ng/mL; Tmax ([1]; po, 30 mg/kg): 2 h; Tumor volume (mm^3, Mean ± SD) Day 0 ([2]; 10mpk, IV*BID, Day 0): 167 mm^3; TGI(%) Day 14 ([2]; 10mpk, IV*BID, Day 14): 143.79%; Tumor volume (mm^3, Mean ± SD) Day 14 ([2]; 10mpk, IV*BID, Day 14): 94 mm^3; ΔT/ΔC(%) Day 14 ([2]; 10mpk, IV*BID, Day 14): 11.89%; tumor inhibition effect (in words) ([2]; intravenous administration dose of 10 mg/kg): inhibition effect of tumor regression; AUC ([3]; iv, 1 mg/kg): 367 ng·h/mL; C0 ([3]; iv, 1 mg/kg): 2490 ng/mL; clearance ([3]; iv, 1 mg/kg): 45 mL/min/kg; half-life ([3]; iv, 1 mg/kg): 2.7 h; Cmax ([3]; po, 30 mg/kg): 11 ng/mL; Tmax ([3]; po, 30 mg/kg): 2 h |
